Strand notation (5' to 3'): a small letter for the sugar, then the base; units joined by * are phosphorothioate-linked, units joined directly phosphodiester-linked; [ ] holds rarer units or linkages, { } end groups; capitals alone tell only the bases. d = 2'-deoxy (DNA); r = 2'-OH (RNA)
Key:
Format in all cases: cell-based
SKNAS cells [1] = assay: Etoposide IC50 in siRNA-transfected cells, Cell Titer Glo 2.0 viability (Example 9)
Experimental: (§1) GPC2 mRNA expression was reduced and changes in cell viability were assessed in multiple neuroblastoma cell lines. Cells were transfected with either a control siRNA or with GPC2 siRNA sequences 3, 5 or 7 from Table 7 using the RNAiMAX Lipofectamine kit (Invitrogen, Carlsbad, Calif.) as previously described in 96 wells for viability assays. Etoposide was added at increasing concentrations (0-15 uM) to transfected cells at 24 hours post transfection. Following a 72 hour incubation period, viability measurement were made using Cell Titer Glo 2.0.

CHLA-136 cells [2] = assay: as above; conditions: CHLA-136 cells transfected with the labelled siRNA; etoposide added 24 hours post transfection, 72 hour incubation
Experimental: as §1

KELLY cells [3] = assay: as above
Experimental: as §1

CHLA-172 cells [4] = assay: as above
Experimental: as §1

SKNAS cells [5] = assay: Doxorubicin IC50 in siRNA-transfected cells, Cell Titer Glo viability (Example 8)
Experimental: as §1, with “with GPC-2” for “with GPC2”, “assays. Doxorubicin” for “assays. Etoposide”, “concentrations (0-5” for “concentrations (0-15”, “viability measurements” for “viability measurement”, “Titer Glo.” for “Titer Glo 2.0.”

CHLA-136 cells [6] = assay: as above
Experimental: as §1, with “with GPC-2” for “with GPC2”, “assays. Doxorubicin” for “assays. Etoposide”, “concentrations (0-5” for “concentrations (0-15”, “viability measurements” for “viability measurement”, “Titer Glo.” for “Titer Glo 2.0.”

KELLY cells [7] = assay: as above
Experimental: as §1, with “with GPC-2” for “with GPC2”, “assays. Doxorubicin” for “assays. Etoposide”, “concentrations (0-5” for “concentrations (0-15”, “viability measurements” for “viability measurement”, “Titer Glo.” for “Titer Glo 2.0.”

CHLA-172 cells [8] = assay: as above
Experimental: as §1, with “with GPC-2” for “with GPC2”, “assays. Doxorubicin” for “assays. Etoposide”, “concentrations (0-5” for “concentrations (0-15”, “viability measurements” for “viability measurement”, “Titer Glo.” for “Titer Glo 2.0.”

[9] = test system: CHP212 neuroblastoma cell line; assay: Cell viability after siRNA transfection, 96 hour (Example 4, FIG. 4B); conditions: 96 hour incubation (FIG. 4B)
Experimental: The extent of GPC2 mRNA reduction was assessed with additional GPC2 siRNA sequences in the CHP212 neuroblastoma cell line. Cells were transfected with either a scrambled control siRNA or with GPC2 siRNA sequences 3 or 5, or with siRNA sequences 6-11 (Sigma) using the RNAiMAX Lipofectamine kit (Invitrogen, Carlsbad, Calif.) as previously described. Following a 96 hour incubation period, total RNA samples were collected and viability was measured in parallel plated cells.

SKNAS cells [10] = assay: Cell viability after siRNA transfection, Cell Titer Glo 2.0 (Example 3); conditions: SKNAS (Neuroblastoma); 96 hour incubation
Experimental: (§2) GPC2 mRNA knockdown and changes in cell viability were assessed in multiple cancer cell lines. Cells were transfected with either a scrambled control siRNA or with GPC2 siRNA sequence 3 or sequence 5 from Table 7 using the RNAiMAX Lipofectamine kit (Invitrogen, Carlsbad, Calif.) as previously described in Example 2, either in 96 well format (for viability assays) or 6 well format (for knockdown assessment). Following a 96 hour incubation period, cells were washed and the viability measurement was assessed using Cell Titer Glo 2.0. Total RNA was isolated from the 6 well plate samples to determine knockdown efficiency.

IMR32 cells = assay: as above; conditions: IMR32 (Neuroblastoma); 96 hour incubation
Experimental: as §2

TC71 cells [11] = assay: as above; conditions: TC71 (Ewing's Sarcoma); 96 hour incubation
Experimental: as §2

RH30 cells [12] = assay: as above; conditions: RH30 (Rhabdomyosarcoma); 96 hour incubation
Experimental: as §2

TC32 cells [13] = assay: as above; conditions: TC32 (Ewing's Sarcoma); 96 hour incubation
Experimental: as §2

CHP212 cells [14] = assay: as above; conditions: CHP212 (Neuroblastoma); 96 hour incubation
Experimental: as §2

COV362 cells = assay: as above; conditions: COV362 (Ovarian Carcinoma); 96 hour incubation
Experimental: as §2

SNU16 cells [15] = assay: as above; conditions: SNU16 (Gastric); 96 hour incubation
Experimental: as §2

MCF7 cells = assay: as above; conditions: MCF7 (Breast); 96 hour incubation
Experimental: as §2

RH41 cells = assay: as above; conditions: RH41 (Rhabdomyosarcoma); 96 hour incubation
Experimental: as §2

TOV112D cells = assay: as above; conditions: TOV112D (Ovarian Carcinoma); 96 hour incubation
Experimental: as §2

GIST-T1 cells [16] = assay: as above; conditions: GIST-T1 (Gastrointestinal Stromal); 96 hour incubation
Experimental: as §2

TC71 cells [17] = assay: Cisplatin IC50 in siRNA-transfected cells, Cell Titer Glo 2.0 viability (Example 5)
Experimental: (§3) GPC2 mRNA was reduced using the indicated siRNAs and changes in cell viability were assessed in multiple cancer cell lines, in combination with Cisplatin treatment. Cells were transfected with either a scrambled control siRNA or with GPC2 siRNA sequences 3 or 5 from Table 7 using the RNAiMAX Lipofectamine kit (Invitrogen, Carlsbad, Calif.), as previously described, in either in 96 well (for viability assays) or 6 well format (for total RNA). Cisplatin was added at increasing concentrations (0 to 30 uM) to transfected cells at 24 hours post transfection. Following a 72 hour incubation period, cell viability was measured using Cell Titer Glo 2.0. Total RNA samples were also isolated to measure knockdown efficiency.

RH30 cells [18] = assay: as above
Experimental: as §3

TC32 cells [19] = assay: as above
Experimental: as §3

CHP212 cells [20] = assay: as above
Experimental: as §3

SNU16 cells [21] = assay: as above
Experimental: as §3

GIST-T1 cells [22] = assay: as above
Experimental: as §3

GPC2 siRNA 5: siRNA duplex: sense CUCAGUAGCCCAGCACUCU[dT][dT] (SEQ ID NO: 211), anti-sense AGAGUGCUGGGCUACUGAG[dT][dT] (SEQ ID NO: 212) (sense CUCAGUAGCCCAGCACUCUTT; antisense AGAGUGCUGGGCUACUGAGTT; sugars from the 5' end r19 d2, backbone not given here; listed as Homo sapiens)
Data Summary: effect of knockdown on sensitivity to etoposide (SKNAS cells [1]; SKNAS): increases sensitivity to etoposide | IC50 (SKNAS cells [1]; SKNAS cells transfected with the labelled siRNA, etoposide added 24 hours post transfection, 72 hour incubation): 20 nM | IC50 (CHLA-136 cells [2]): 80 nM | Data Summary: effect of knockdown on sensitivity to etoposide (KELLY cells [3]; KELLY): increases sensitivity to etoposide | IC50 (KELLY cells [3]; KELLY cells transfected with the labelled siRNA, etoposide added 24 hours post transfection, 72 hour incubation): 60 nM | Data Summary: effect of knockdown on sensitivity to etoposide (CHLA-172 cells [4]; CHLA-172): increases sensitivity to etoposide | IC50 (CHLA-172 cells [4]; CHLA-172 cells transfected with the labelled siRNA, etoposide added 24 hours post transfection, 72 hour incubation): 900 nM | Data Summary: effect of knockdown on sensitivity to doxorubicin (SKNAS cells [5]; SKNAS): increases sensitivity to | IC50 (SKNAS cells [5]; SKNAS cells transfected with the labelled siRNA, doxorubicin added 24 hours post transfection, 72 hour incubation): 20 nM | Data Summary: effect of knockdown on sensitivity to doxorubicin (CHLA-136 cells [6]; CHLA-136): KD with sequence 5 increases | IC50 (CHLA-136 cells [6]; CHLA-136 cells transfected with the labelled siRNA, doxorubicin added 24 hours post transfection, 72 hour incubation): 80 nM | Data Summary: effect of knockdown on sensitivity to doxorubicin (KELLY cells [7]; KELLY): not increase sensitivity | IC50 (KELLY cells [7]; KELLY cells transfected with the labelled siRNA, doxorubicin added 24 hours post transfection, 72 hour incubation): 60 nM | Data Summary: effect of knockdown on sensitivity to doxorubicin (CHLA-172 cells [8]; CHLA-172): KD with sequence 5 increases | IC50 (CHLA-172 cells [8]; CHLA-172 cells transfected with the labelled siRNA, doxorubicin added 24 hours post transfection, 72 hour incubation): 900 nM | Viability decrease among sequences 3, 5, 6-11 [9]: greater viability decrease | % Viability (SKNAS cells [10]): 56.14% | % Viability (IMR32 cells): 63.62% | % Viability (TC71 cells [11]): 100.92% | % Viability (RH30 cells [12]): 46.03% | % Viability (TC32 cells [13]): 77.18% | % Viability (CHP212 cells [14]): 64.46% | % Viability (COV362 cells): 94.27% | % Viability (SNU16 cells [15]): 89.01% | % Viability (MCF7 cells): 67.11% | % Viability (RH41 cells): 31.32% | % Viability (TOV112D cells): 81.15% | % Viability (GIST-T1 cells [16]): 40.13% | Data Summary: effect of knockdown on sensitivity to cisplatin (TC71 cells [17]; TC71): does not increase | IC50 (TC71 cells [17]; TC71 cells transfected with the labelled siRNA, cisplatin added 24 hours post transfection, 72 hour incubation): 1400 nM | Data Summary: effect of knockdown on sensitivity to cisplatin (RH30 cells [18]; RH30): does not increase | IC50 (RH30 cells [18]; RH30 cells transfected with the labelled siRNA, cisplatin added 24 hours post transfection, 72 hour incubation): 2500 nM | Data Summary: effect of knockdown on sensitivity to cisplatin (TC32 cells [19]; TC32): does not increase | IC50 (TC32 cells [19]; TC32 cells transfected with the labelled siRNA, cisplatin added 24 hours post transfection, 72 hour incubation): 1200 nM | Data Summary: effect of knockdown on sensitivity to cisplatin (CHP212 cells [20]; CHP212): increases sensitivity to | IC50 (CHP212 cells [20]; CHP212 cells transfected with the labelled siRNA, cisplatin added 24 hours post transfection, 72 hour incubation): 6000 nM | Data Summary: effect of knockdown on sensitivity to cisplatin (SNU16 cells [21]; SNU16): does not increase | IC50 (SNU16 cells [21]; SNU16 cells transfected with the labelled siRNA, cisplatin added 24 hours post transfection, 72 hour incubation): 16000 nM | Data Summary: effect of knockdown on sensitivity to cisplatin (GIST-T1 cells [22]; GIST-T1): increases sensitivity to | IC50 (GIST-T1 cells [22]; GIST-T1 cells transfected with the labelled siRNA, cisplatin added 24 hours post transfection, 72 hour incubation): 1000 nM

GPC2 siRNA 7: siRNA duplex: sense CUCCUUUCUGGUUCACACA[dT][dT] (SEQ ID NO: 215), anti-sense UGUGUGAACCAGAAAGGAG[dT][dT] (SEQ ID NO: 216) (sense rCrUrCrCrUrUrUrCrUrGrGrUrUrCrArCrArCrAdTdT; antisense rUrGrUrGrUrGrArArCrCrArGrArArArGrGrArGdTdT; listed as Homo sapiens)
Viability decrease among sequences 3, 5, 6-11 [9]: greater viability decrease

— patent publication US20210171948A1, “COMPOSITIONS AND METHODS FOR TARGETING GLYPICAN-2 IN THE TREATMENT OF CANCER” (Shepherd Therapeutics, Inc., priority 2019, published 2021)
